According to patent US12668587B2, “Benzimidazolone GLP-1 receptor agonist and use thereof” (HANGZHOU ZHONGMEIHUADONG PHARMACEUTICAL CO., LTD., priority 2020, dated 2026):
Read-outs that look alike come from different tables or passages of the source.

Biological target: Human GLP-1R (Homo sapiens, UniProt P43220)
Assay: GLP-1R agonist activity, HTRF cAMP detection in 293A GFP-GLP-1R cells
Set-up: Emax: dose or concentration left out as unconfirmed
Conditions: for Emax: 293A
[1] = cAMP level, 293A GFP-GLP-1R cells, 30 min incubation, geometric mean

Sequence of Human GLP-1R (P43220 24-463): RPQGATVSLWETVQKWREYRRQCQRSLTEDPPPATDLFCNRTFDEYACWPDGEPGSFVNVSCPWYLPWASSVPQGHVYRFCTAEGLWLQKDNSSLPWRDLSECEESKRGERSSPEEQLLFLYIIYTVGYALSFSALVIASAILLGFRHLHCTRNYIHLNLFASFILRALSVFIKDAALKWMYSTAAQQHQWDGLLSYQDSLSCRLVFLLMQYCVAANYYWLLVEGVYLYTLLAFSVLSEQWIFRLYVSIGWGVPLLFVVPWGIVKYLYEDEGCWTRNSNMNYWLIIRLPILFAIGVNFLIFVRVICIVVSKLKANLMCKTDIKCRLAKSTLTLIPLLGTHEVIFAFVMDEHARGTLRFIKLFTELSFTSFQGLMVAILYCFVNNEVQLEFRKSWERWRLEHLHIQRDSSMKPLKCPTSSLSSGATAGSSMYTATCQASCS
Method: GLP-1R-mediated agonist activity was determined by cell-based assays using a homogeneous time-resolved fluorescence (i.e., HTRF)-based cAMP detection kit, which measures the level of cAMP in cells. The method was a competitive immunoassay. It enabled direct pharmacological characterization of compounds acting on Gs-coupled receptors in adherent or suspending cells.
The standard curve of native cAMP or unlabeled cAMP produced by cells competed with d2-labeled cAMP red receptors to bind monoclonal anti-cAMP Eu3+ cryptate donors, and the specific signal was inversely proportional to the concentration of cAMP in standard or tested samples.
Human GLP-1R encoding sequence (NCBI reference sequence NP_002053.3) was subcloned into pEGFP-N1 (tsingke), and the cell line stably expressing the receptor was isolated. The expression density of GLP-1R was confirmed by the expression of GFP observed under a fluorescence microscope.
Cells were collected from a T25 tissue culture flask and centrifuged at room temperature at 1000 rpm for 5 minutes. The cell precipitates were then re-suspended in 1 mL of the stimulating buffer. 20 μL sample of cell suspension was counted on a counter STAR IC 1000 to determine the cell viability and the cell count per mL. The remaining cell suspension was then regulated with the stimulating buffer to deliver 2000 living cells per well using a multi-channel pipette. 5 μL of the cell suspension was added to each well of the plate which already contained the compound. The plate was sealed and incubated at 37° C. with 5% CO2 for 30 minutes.
After 30 minutes of incubation, 5 μL of d2-labeled cAMP and 5 μL of anti-cAMP cryptate (both 1: 20 diluted in the cell lysis buffer) were added to each well of the plate. The plate was then incubated at room temperature for 60 minutes, and the changes of HTRF signal were read with Tecan Spark reader: absorbance values at 340 nm (excitation)/at 615 nm and 665 nm (emission). Raw data were converted into nM cAMP by interpolation from the cAMP standard curve, and the effect in percentage was determined relative to the saturated concentration of the complete agonist GLP-17˜37 (400 nM) contained in each plate. Determination of EC50 was performed based on the agonist dose-response curve, which was analyzed using a four-parameter logical dose-response equation with a curve fitting program.
The test data presented the results in the form of a geometric mean (EC50s) based on the number of repetition times.

Row | Compound | Emax [%] | EC50 [nM] | EC50 [1] [nM]
1 | CN1CCC(C(=O)c2ccc(COc3cccc(C4CCN(Cc5nc6ccc(C(=O)O)cc6n5C[C@@H]5CCO5)CC4)n3)c(F)c2)CC1 [Compound 29, (S)-2-((4-(6-((2-fluoro-4-(1-methylpiperidin-4-carbonyl)benzyl)oxy)pyridin-2-yl)piperidin-1-yl)methyl)-1-(oxetan-2-ylmethyl)-1H-benzo[d]imidazole-6-carboxylic acid] | 7.12 | – | –
2 | Cc1cc(C(=O)C2CC2)ccc1COc1cccc(C2CCN(Cc3nc4ccc(C(=O)O)nc4n3C[C@@H]3CCO3)CC2)n1 [Compound 40, (S)-2-((4-(6-((4-(cyclopropanecarbonyl)-2-methylbenzyl)oxy)pyridin-2-yl)piperidin-1-yl)methyl)-3-(oxetan-2-ylmethyl)-3H-imidazo[4,5-b]pyridine-5-carboxylic acid] | 94.7 | 0.07 | –
3 | CC(=O)c1cc(F)c(COc2cccc(C3CCN(Cc4nc5ccc(C(=O)O)cc5n4C[C@@H]4CCO4)CC3)n2)c(F)c1 [Compound 13, (S)-2-((4-(6-((4-acetyl-2,6-difluorobenzyl)oxy)pyridin-2-yl)piperidin-1-yl)methyl)-1-(oxetan-2-ylmethyl)-1H-benzo[d]imidazole-6-carboxylic acid] | 88.5 | 40 | –
4 | O=C(O)c1ccc2nc(CN3CCC(c4cccc(OCc5ccc(C(=O)c6cccnc6)cc5F)n4)CC3)n(C[C@@H]3CCO3)c2c1 [Compound 8, (S)-2-((4-(6-((2-fluoro-4-nicotinoylbenzyl)oxy)pyridin-2-yl)piperidin-1-yl)methyl)-1-(oxetan-2-ylmethyl)-1H-benzo[d]imidazole-6-carboxylic acid] | 88 | – | 23.7
5 | CC(=O)c1ccc(COc2cccc(C3CCN(Cc4nc5ccc(C(=O)O)cc5n4C[C@@H]4CCO4)CC3)n2)c(F)c1 [Compound 1, (S)-2-((4-(6-((4-acetyl-2-fluorobenzyl)oxy)pyridin-2-yl)piperidin-1-yl)methyl)-1-(oxetan-2-ylmethyl)-1H-benzo[d]imidazole-6-carboxylic acid] | 111 | 0.85 | –
6 | C[C@H]1CN(c2cccc(OCc3ccc(C(=O)C4CC4)cc3F)n2)CCN1Cc1nc2ccc(C(=O)O)cc2n1C[C@@H]1CCO1 [Compound 39, 2-(((S)-4-(6-((4-(cyclopropanecarbonyl)-2-fluorobenzyl)oxy)pyridin-2-yl)-2-methylpiperazin-1-yl)methyl)-1-(((S)-oxetan-2-yl)methyl)-1H-benzo[d]imidazole-6-carboxylic acid] | 87.9 | 3.38 | –
7 | O=C(O)c1ccc2nc(Cc3ccc(-c4cccc(OCc5ccc(C(=O)C6CC6)cc5F)n4)cc3F)n(C[C@@H]3CCO3)c2c1 [Compound 46] | – | 0.02 | –
8 | CC(=O)c1ccc(COc2cccc(C3CCN(Cc4nc5ccc(C(=O)O)cc5n4C[C@@H]4CCO4)CC3)n2)c(C)c1 [Compound 10, (S)-2-((4-(6-((4-acetyl-2-methylbenzyl)oxy)pyridin-2-yl)piperidin-1-yl)methyl)-1-(oxetan-2-ylmethyl)-1H-benzo[d]imidazole-6-carboxylic acid] | 125 | 1.67 | –
9 | COc1cc(COc2cccc(C3CCN(Cc4nc5ccc(C(=O)O)cc5n4C[C@@H]4CCO4)CC3)n2)c(F)cc1C(=O)C1CC1 [Compound 37, (S)-2-((4-(6-((4-(cyclopropanecarbonyl)-2-fluoro-5-methoxybenzyl)oxy)pyridin-2-yl)piperidin-1-yl)methyl)-1-(oxetan-2-ylmethyl)-1H-benzo[d]imidazole-6-carboxylic acid] | 68.5 | 228 | –
10 | CN(C)C(=O)c1ccc(COc2cccc(C3CCN(Cc4nc5ccc(C(=O)O)cc5n4C[C@@H]4CCO4)CC3)n2)c(F)c1 [Compound 24, (S)-2-((4-(6-((4-(dimethylcarbamoyl)-2-fluorobenzyl)oxy)pyridin-2-yl)piperidin-1-yl)methyl)-1-(oxetan-2-ylmethyl)-1H-benzo[d]imidazole-6-carboxylic acid] | 25.8 | > 1000 | –
11 | CCn1cnc(Cn2c(CN3CCC(c4cccc(OCc5ccc(C(=O)C6CC6)cc5F)n4)CC3)nc3ccc(C(=O)O)cc32)c1 [Compound 35, 2-((4-(6-((4-(cyclopropanecarbonyl)-2-fluorobenzyl)oxy)pyridin-2-yl)piperidin-1-yl)methyl)-1-((1-ethyl-1H-imidazol-4-yl)methyl)-1H-benzo[d]imidazole-6-carboxylic acid] | – | 32 | –
12 | CCOc1cc(C(C)=O)ccc1COc1cccc(C2CCN(Cc3nc4ccc(C(=O)O)cc4n3C[C@@H]3CCO3)CC2)n1 [Compound 30, (S)-2-((4-(6-((4-acetyl-2-ethoxybenzyl)oxy)pyridin-2-yl)piperidin-1-yl)methyl)-1-(oxetan-2-ylmethyl)-1H-benzo[d]imidazole-6-carboxylic acid] | 112 | 0.91 | –
13 | COc1cc(C(C)=O)ccc1COc1cccc(C2CCN(Cc3nc4ccc(C(=O)O)cc4n3C[C@@H]3CCO3)CC2)n1 [Compound 12, (S)-2-((4-(6-((4-acetyl-2-methoxybenzyl)oxy)pyridin-2-yl)piperidin-1-yl)methyl)-1-(oxetan-2-ylmethyl)-1H-benzo[d]imidazole-6-carboxylic acid] | 147 | 0.25 | –
14 | CP(C)(=O)c1ccc(COc2cccc(C3CCN(Cc4nc5ccc(C(=O)O)cc5n4C[C@@H]4CCO4)CC3)n2)c(F)c1 [Compound 6, (S)-2-((4-(6-((4-(dimethylphosphoryl)-2-fluorobenzyl)oxy)pyridin-2-yl)piperidin-1-yl)methyl)-1-(oxetan-2-ylmethyl)-1H-benzo[d]imidazole-6-carboxylic acid] | 7.07 | > 1000 | –
15 | CC(=O)c1ccc(COc2cccc(C3CCN(Cc4nc5ccc(C(=O)O)cc5n4C[C@@H]4CCO4)CC3)n2)nc1 [Compound 9, (S)-2-((4-(6-((5-acetylpyridin-2-yl)methoxy)pyridin-2-yl)piperidin-1-yl)methyl)-1-(oxetan-2-ylmethyl)-1H-benzo[d]imidazole-6-carboxylic acid] | 83.4 | 27 | –
16 | O=C(O)c1ccc2nc(CN3CCC(c4cccc(OCc5ccc(C(=O)C6CC6)cc5F)n4)CC3)n(CC3(CF)CC3)c2c1 [Compound 47] | – | 0.01 | –
17 | CNC(=O)c1ccc(COc2cccc(C3CCN(Cc4nc5ccc(C(=O)O)cc5n4C[C@@H]4CCO4)CC3)n2)c(F)c1 [Compound 4, (S)-2-((4-(6-((2-fluoro-4-(methylcarbamoyl)benzyl)oxy)pyridin-2-yl)piperidin-1-yl)methyl)-1-(oxetan-2-ylmethyl)-1H-benzo[d]imidazole-6-carboxylic acid] | 68.6 | – | 179
18 | N#CCC1(Cn2c(CN3CCC(c4cccc(OCc5ccc(C(=O)C6CC6)cc5F)n4)CC3)nc3ccc(C(=O)O)cc32)CC1 [Compound 45] | – | 0.013 | –
19 | Cc1cc(C(=O)C2CC2)ccc1COc1cccc(N2CCN(Cc3nc4ccc(C(=O)O)cc4n3C[C@@H]3CCO3)[C@@H](C)C2)n1 [Compound 41, 2-(((S)-4-(6-((4-(cyclopropanecarbonyl)-2-methylbenzyl)oxy)pyridin-2-yl)-2-methylpiperazin-1-yl)methyl)-1-(((S)-oxetan-2-yl)methyl)-1H-benzo[d]imidazole-6-carboxylic acid] | 77.3 | > 1000 | –
20 | COc1cc(C(=O)C(C)C)ccc1COc1cccc(C2CCN(Cc3nc4ccc(C(=O)O)cc4n3C[C@@H]3CCO3)CC2)n1 [Compound 32, (S)-2-((4-(6-((4-isobutyryl-2-methoxybenzyl)oxy)pyridin-2-yl)piperidin-1-yl)methyl)-1-(oxetan-2-ylmethyl)-1H-benzo[d]imidazole-6-carboxylic acid] | 102 | 416 | –
21 | CC(=O)c1ccc(F)c(COc2cccc(C3CCN(Cc4nc5ccc(C(=O)O)cc5n4C[C@@H]4CCO4)CC3)n2)c1 [Compound 14, (S)-2-((4-(6-((5-acetyl-2-fluorobenzyl)oxy)pyridin-2-yl)piperidin-1-yl)methyl)-1-(oxetan-2-ylmethyl)-1H-benzo[d]imidazole-6-carboxylic acid] | 109 | 705 | –
22 | NC(=O)c1ccc(COc2cccc(C3CCN(Cc4nc5ccc(C(=O)O)cc5n4C[C@@H]4CCO4)CC3)n2)c(F)c1 [Compound 3, (S)-2-((4-(6-((4-carbamoyl-2-fluorobenzyl)oxy)pyridin-2-yl)piperidin-1-yl)methyl)-1-(oxetan-2-ylmethyl)-1H-benzo[d]imidazole-6-carboxylic acid] | 54.5 | – | 75.9
23 | CC(=O)c1cccc(COc2cccc(C3CCN(Cc4nc5ccc(C(=O)O)cc5n4C[C@@H]4CCO4)CC3)n2)c1F [Compound 17, (S)-2-((4-(6-((3-acetyl-2-fluorobenzyl)oxy)-pyridin-2-yl)piperidin-1-yl)methyl)-1-(oxetan-2-ylmethyl)-1H-benzo[d]imidazole-6-carboxylic acid] | 104 | 7.68 | –
24 | CC(=O)c1ccc(COc2cccc(C3CCN(Cc4nc5ccc(C(=O)O)cc5n4C[C@@H]4CCO4)CC3)n2)cc1F [Compound 26, (S)-2-((4-(6-((4-acetyl-3-fluorobenzyl)oxy)pyridin-2-yl)piperidin-1-yl)methyl)-1-(oxetan-2-ylmethyl)-1H-benzo[d]imidazole-6-carboxylic acid] | 94.4 | 4.57 | –
25 | CC(=O)c1ccc(COc2cccc(N3CCN(Cc4nc5ccc(C(=O)O)cc5n4C[C@@H]4CCO4)[C@@H](C)C3)n2)c(F)c1 [Compound 28, 2-(((S)-4-(6-((4-acetyl-2-fluorobenzyl)oxy)pyridin-2-yl)-2-methylpiperazin-1-yl)methyl)-1-(((S)-oxetan-2-yl)methyl)-1H-benzo[d]imidazole-6-carboxylic acid] | 95.2 | 0.3 | –
26 | O=C(O)c1ccc2nc(CN3CCC(c4cccc(OCc5ccc(C(=O)C6CC6)cc5F)n4)CC3)n(C[C@@H]3CCO3)c2c1 [Compound 7, (S)-2-((4-(6-((4-(cyclopropanecarbonyl)-2-fluorobenzyl)oxy)pyridin-2-yl)piperidin-1-yl)methyl)-1-(oxetan-2-ylmethyl)-1H-benzo[d]imidazole-6-carboxylic acid] | 103 | – | 0.75
